Measured values from patent US8778939B2, “Compounds” (Glaxo Group Limited, priority 2009, dated 2014).

Tests used:
Type in all cases: biochemical
[1] = target: T1, 6His-Tev-LRRK2 (1326-2527) (Homo sapiens, UniProt Q5S007); experiment: LRRK2 AlphaScreen protein substrate assay; conditions: GST-PS-Moesin (400-577) substrate, ATP at Km; read-out: pIC50 in the LRRK2 alphascreen protein substrate assay (converted)
T1 construct: A LRRK2 cDNA encoding residues 1326-2527 was received from Dundee University; made in house; host or cells: Spodoptera frugiperda (Sf9) insect cells, baculovirus
T1 sequence (Q5S007 1326-2527): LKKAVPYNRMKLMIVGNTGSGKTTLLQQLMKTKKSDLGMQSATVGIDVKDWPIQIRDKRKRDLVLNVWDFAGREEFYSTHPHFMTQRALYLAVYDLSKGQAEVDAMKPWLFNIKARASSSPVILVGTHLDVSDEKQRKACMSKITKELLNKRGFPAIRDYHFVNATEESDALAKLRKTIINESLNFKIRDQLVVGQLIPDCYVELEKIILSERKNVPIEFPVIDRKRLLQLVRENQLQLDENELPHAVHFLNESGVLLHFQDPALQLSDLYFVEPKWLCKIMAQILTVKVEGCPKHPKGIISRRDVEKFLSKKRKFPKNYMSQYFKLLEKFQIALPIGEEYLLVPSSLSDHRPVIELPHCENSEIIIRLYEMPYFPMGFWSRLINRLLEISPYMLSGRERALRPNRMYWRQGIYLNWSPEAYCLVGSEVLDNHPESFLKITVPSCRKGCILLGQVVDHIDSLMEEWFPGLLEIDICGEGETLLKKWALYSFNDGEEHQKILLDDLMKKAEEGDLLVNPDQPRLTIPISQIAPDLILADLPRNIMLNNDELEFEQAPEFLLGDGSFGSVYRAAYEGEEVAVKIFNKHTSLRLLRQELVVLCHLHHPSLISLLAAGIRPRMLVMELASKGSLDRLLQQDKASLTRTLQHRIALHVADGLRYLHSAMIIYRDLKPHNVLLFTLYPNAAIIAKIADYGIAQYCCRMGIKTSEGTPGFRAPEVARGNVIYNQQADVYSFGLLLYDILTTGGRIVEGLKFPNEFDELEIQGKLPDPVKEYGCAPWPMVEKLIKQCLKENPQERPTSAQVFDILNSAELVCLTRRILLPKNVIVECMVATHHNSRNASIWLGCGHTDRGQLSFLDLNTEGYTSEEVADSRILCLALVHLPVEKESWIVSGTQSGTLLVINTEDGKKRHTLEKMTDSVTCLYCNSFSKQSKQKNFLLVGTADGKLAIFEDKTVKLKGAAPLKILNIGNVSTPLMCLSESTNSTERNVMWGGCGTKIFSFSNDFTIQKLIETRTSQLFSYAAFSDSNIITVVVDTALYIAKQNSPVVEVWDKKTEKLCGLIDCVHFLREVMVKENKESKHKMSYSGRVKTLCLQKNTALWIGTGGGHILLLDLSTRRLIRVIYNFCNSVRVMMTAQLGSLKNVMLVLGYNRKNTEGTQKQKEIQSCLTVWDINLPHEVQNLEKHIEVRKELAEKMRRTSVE
Experimental: a) 100 nl of a 1:4 serial dilution of test compound with a top final assay concentration of 30 μM is added to certain wells in a low volume 384 well black plate. 100 nl of DMSO is used in certain wells as controls.
b) 3 μl enzyme solution (80 nM purified recombinant 6His-Tev-LRRK2 (1326-2527) in assay buffer: 50 mM Hepes (pH 7.2), 10 mM MgCl2, 150 mM NaCl, 5% glycerol, 0.0025% triton X-100 and 1 mM DTT) is added to certain wells.
Plates are then incubated for a further 1-2 hours at room temperature (incubation time varies depending upon rate and linearity of reaction with differing enzyme batches).
d) 6 μl detection solution (1:250 dilution of AlphaLisa Protein A Acceptor beads (PerkinElmer), 1:64 dilution of AlphaLisa Gluthathione Donor beads (PerkinElmer) and 1:600 dilution (dilution determined on a batch to batch basis) of Phospho-Ezrin (Thr567)/Radixin (Thr564)/Moesin (Thr558) Polyclonal Antibody (New England Biolabs) in a buffer: 50 mM Hepes (pH 7.5), 250 mM NaCl, 60 mM EDTA, 1% PEG and 0.01% Brij 35) is added to each well. Plates are then incubated for a further 2 hours at room temperature in the dark before reading on an EnVision™ plate reader with AlphaScreen HTS turbo option module and AlphaScreen settings. Data is analysed using ActivityBase software (IDBS).

[2] = target: T1, 6His-Tev-LRRK2 (1326-2527); experiment: LRRK2 AlphaScreen desensitised protein substrate assay
Method in brief: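 AlphaScreen readout with phospho-Ezrin/Radixin/Moesin antibody after a 20 min room-temperature reaction at 2 mM ATP (substrate solution). Enzyme: 6His-Tev-LRRK2 (1326-2527) at 80 nM in enzyme solution, Hepes pH 7.2 buffer; test compound serially diluted 1:4 from 30 μM final.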

[3] = target: T1, 6His-Tev-LRRK2 (1326-2527); experiment: LRRK2 peptide substrate assay; conditions: Biotin-LRRKtide peptide substrate, ATP at Km
Method in brief: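 Phosphorylation of biotin-LRRKtide/moesin substrate read by time-resolved FRET (Eu anti-rabbit IgG, streptavidin-APC, phospho-ERM Thr558 antibody; 665/620 nm). The 6His-Tev-LRRK2 (1326-2527) enzyme solution was 80 nM, in 50 mM Hepes pH 7.2 with 10 mM MgCl2 and 1 mM DTT. Incubation 1-2 h at room temperature; compounds tested up to 30 μM final, 1:4 dilutions.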

[4] = excess of ATP present (2 mM ATP), read-out: pIC50 in the LRRK2 alphascreen desensitised protein substrate assay (converted)
[5] = read-out: pIC50 in the LRRK2 peptide substrate assay (converted)
[6] = mean pIC50, GST-PS-Moesin (400-577) substrate, 2 mM ATP (excess of ATP present), read-out: LRRK2 alphascreen desensitised protein substrate assay (pIC50) (converted)
[7] = mean pIC50, read-out: LRRK2 peptide substrate assay (pIC50) (converted)

IC50 [1] [µM] | IC50 [3, 5] [µM] | IC50 [3, 7] [µM] | Compound | IC50 [2, 4] [µM] | IC50 [2, 6] [µM]
≤ 0.1 | ≤ 0.1 | – | N#Cc1ccc(OCc2ccccc2)c(C(=O)Nc2cccnc2)c1 [Example 8, 5-Cyano-2-[(phenylmethyl)oxy]-N-3-pyridinylbenzamide] | ≤ 20 | –
≤ 0.1 | ≤ 0.1 | – | O=C(Nc1cccnc1)c1cc(O)ccc1OCc1ccccc1 [Example 29, 5-Hydroxy-2-[(phenylmethyl)oxy]-N-3-pyridinylbenzamide] | ≤ 20 | –
≤ 0.1 | ≤ 0.1 | – | CN1CCC(Oc2ccc(OCc3ccccc3)c(C(=O)Nc3cccnc3)c2)CC1 [Example 31, 5-[(1-Methyl-4-piperidinyl)oxy]-2-[(phenylmethyl)oxy]-N-3-pyridinylbenzamide] | ≤ 20 | –
– | ≤ 0.01 | – | CC(O)c1ccc(OCc2ccccc2)c(C(=O)Nc2cccnc2)c1 (stereo not drawn) [Example 75, 5-(1-Hydroxyethyl)-2-[(phenylmethyl)oxy]-N-3-pyridinylbenzamide] | ≤ 20 | –
– | ≤ 0.1 | 0.0158 | O=C(Nc1cccnc1)c1cc(CN2CCOCC2)ccc1OCc1ccccc1 [Example 69, 5-(4-Morpholinylmethyl)-2-[(phenylmethyl)oxy]-N-3-pyridinylbenzamide] | ≤ 20 | 0.501
– | ≤ 0.1 | – | O=C(O)CCc1ccc(OCc2ccccc2)c(C(=O)Nc2cccnc2)c1 [Example 88, 3-{4-[(phenylmethyl)oxy]-3-[(3-pyridinylamino)carbonyl]phenyl}propanoic acid] | > 25.1 | –
– | ≤ 0.1 | – | O=C(Nc1cccnc1)c1cc(CN2CCOCC2)ccc1OCc1ccc(F)c(F)c1 [Example 112, 2-{[(3,4-Difluorophenyl)methyl]oxy}-5-(4-morpholinylmethyl)-N-3-pyridinylbenzamide] | ≤ 20 | –
– | ≤ 0.01 | – | CN1CCC[C@H]1COc1ccc(OCc2ccccc2)c(C(=O)Nc2cccnc2)c1 [Example 47, 5-({[(2S)-1-Methyl-2-pyrrolidinyl]methyl}oxy)-2-[(phenylmethyl)oxy]-N-3-pyridinylbenzamide] | ≤ 20 | –
– | ≤ 0.01 | – | CN1CCC[C@@H]1COc1ccc(OCc2ccccc2)c(C(=O)Nc2cccnc2)c1 [Example 45, 5-({[(2R)-1-Methyl-2-pyrrolidinyl]methyl}oxy)-2-[(phenylmethyl)oxy]-N-3-pyridinylbenzamide] | ≤ 20 | –

Further lines, the compound ahead of its results:

Compound | IC50 [1] [µM] | IC50 [3, 5] [µM] | IC50 [3, 7] [µM] | IC50 [2, 4] [µM] | IC50 [2, 6] [µM]
N#Cc1ccccc1COc1ccc(Br)cc1C(=O)Nc1cccnc1 [Example 23, 5-Bromo-2-{[(2-cyanophenyl)methyl]oxy}-N-3-pyridinylbenzamide] | ≤ 7.94 | – | – | ≤ 20 | –
CCc1cccc(NC(=O)c2cc(Br)ccc2OCc2ccccc2)c1 [Example 20, 5-Bromo-N-(3-ethylphenyl)-2-[(phenylmethyl)oxy]benzamide] | ≤ 7.94 | – | – | > 25.1 | –
COc1cccc(COc2ccc(Br)cc2C(=O)Nc2cccnc2)c1 [Example 18, 5-Bromo-2-({[3-(methyloxy)phenyl]methyl}oxy)-N-3-pyridinylbenzamide] | ≤ 7.94 | – | – | > 25.1 | –
O=C(Nc1ccccn1)c1cc(Br)ccc1OCc1ccccc1 [Example 22, 5-Bromo-2-[(phenylmethyl)oxy]-N-2-pyridinylbenzamide] | > 25.1 | – | – | > 25.1 | –
COc1ccccc1COc1ccc(Br)cc1C(=O)Nc1cccnc1 [Example 21, 5-Bromo-2-({[2-(methyloxy)phenyl]methyl}oxy)-N-3-pyridinylbenzamide] | ≤ 7.94 | – | – | ≤ 20 | –
CNC(=O)c1cccc(NC(=O)c2cc(Br)ccc2OCc2ccccc2)c1 [Example 27, 5-Bromo-N-{3-[(methylamino)carbonyl]phenyl}-2-[(phenylmethyl)oxy]benzamide] | ≤ 7.94 | – | – | > 25.1 | –
O=C(Nc1ccnnc1)c1cc(-c2ccncc2)ccc1OCc1ccccc1 [Example 74, 2-[(Phenylmethyl)oxy]-N-4-pyridazinyl-5-(4-pyridinyl)benzamide] | – | ≤ 0.01 | – | ≤ 20 | –
O=C(Nc1ccnnc1)c1cc(-c2ccncc2)ccc1OCc1ccc(F)c(F)c1 [Example 106, 2-([(3,4-Difluorophenyl)methyl]oxy)-N-4-pyridazinyl-5-(4-pyridinyl)benzamide] | – | ≤ 0.1 | – | ≤ 20 | –
O=C(Nc1ccnnc1)c1cc(-c2cn[nH]c2)ccc1OCc1ccc(F)c(F)c1 [Example 108, 2-{[(3,4-Difluorophenyl)methyl]oxy}-5-(1H-pyrazol-4-yl)-N-4-pyridazinylbenzamide] | – | ≤ 0.1 | – | ≤ 20 | –
Cn1cc(-c2ccc(OCc3ccc(F)cc3)c(C(=O)Nc3cnoc3)c2)cn1 [Example 134, 2-{[(4-Fluorophenyl)methyl]oxy}-N-4-isoxazolyl-5-(1-methyl-1H-pyrazol-4-yl)benzamide] | – | ≤ 0.1 | – | ≤ 20 | –
O=C(Nc1cncc(F)c1)c1cc(-c2ccncc2)ccc1OCc1ccccc1 [Example 102, N-(5-Fluoro-3-pyridinyl)-2-[(phenylmethyl)oxy]-5-(4-pyridinyl)benzamide] | – | ≤ 0.1 | – | > 25.1 | –
Cc1nocc1NC(=O)c1cc(-c2cnn(CCN3CCOCC3)c2)ccc1OCc1ccc(F)cc1 [Example 129, 2-([(4-Fluorophenyl)methyl]oxy)-N-(3-methyl-4-isoxazolyl)-5-{1-[2-(4-morpholinyl)ethyl]-1H-pyrazol-4-yl}benzamide] | – | ≤ 0.1 | 0.0126 | > 25.1 | > 25.1
NCCOCCOc1ccc(OCc2ccccc2)c(C(=O)Nc2cccnc2)c1 [Example 49, 5-({2-[(2-Aminoethyl)oxy]ethyl}oxy)-2-[(phenylmethyl)oxy]-N-3-pyridinylbenzamide] | – | ≤ 0.01 | – | ≤ 20 | –
O=C(O)Cc1cccc(NC(=O)c2cc(Cl)ccc2OCc2ccccc2)c1 [Example 25, {3-[({5-Chloro-2-[(phenylmethyl)oxy]phenyl}carbonyl)amino]phenyl}acetic acid] | ≤ 7.94 | – | – | – | –
CC(C)(O)c1ccc(OCc2ccccc2)c(C(=O)Nc2cccnc2)c1 [Example 76, 5-(1-Hydroxy-1-methylethyl)-2-[(phenylmethyl)oxy]-N-3-pyridinylbenzamide] | – | ≤ 0.01 | – | ≤ 20 | –
